Reference: patent publication US9079913B2, “Spiro-oxindole MDM2 antagonists” (The Regents of the University of Michigan, priority 2009, dated 2015)
Like-named read-outs stand apart in the source and are kept apart here.

How the values were obtained:
[1] = Pharmacokinetic studies in rats; assay type: in vivo, rat; conditions: for oral bioavailability / oral pharmacokinetics in rats (in words): oral dosing
Experimental: Pharmacokinetic studies on MDM2 inhibitors were carried out in rat. For comparison, the MDM2 inhibitor, AT-219, was also studied.

[2] = In vitro microsomal stability, rat; assay type: in vitro ADME; conditions: for microsomal stability (in words): rat liver microsomes
[3] = test system: Isogenic HCT-116 colon cancer cell lines; assay: cells; assay type: cell-based; conditions: Homo sapiens, cell growth;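 further: cells grown in 96-well plates in McCoy's 5A medium with 10% FBS, exposed to compound for 4 days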
Experimental: Cells were seeded in 96-well flat bottom cell culture plates at a density of 2−3×10^3 cells/well with compounds and incubated for 4 days.

[4] = test system: cancer cell lines with wild-type p53 / mutated or deleted p53 (ATCC); assay: Cell growth assay (WST-8), other cancer cell lines; assay type: cell-based; conditions: Homo sapiens
[5] = molecular target: recombinant human His-tagged MDM2 protein (residues 1-118) (Homo sapiens (Human), UniProt Q00987); assay: Fluorescence-polarization MDM2 binding assay; conditions: Table 19A; FP binding assay; read-out: MDM2 IC50;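 further: fluorescence polarization read after three hours of incubation in potassium phosphate buffer containing bovine gamma globulin and Triton X-100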
Sequence of recombinant human His-tagged MDM2 protein (residues 1-118) (Q00987 1-118): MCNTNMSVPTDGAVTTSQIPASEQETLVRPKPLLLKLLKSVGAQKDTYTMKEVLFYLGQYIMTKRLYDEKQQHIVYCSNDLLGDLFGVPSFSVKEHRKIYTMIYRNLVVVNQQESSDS
Experimental: The assay was performed in the buffer: 100 mM potassium phosphate, pH 7.5; 100 μg/mL bovine gamma globulin; 0.02% sodium azide, 0.01% Triton X-100) and the polarization values were measured after 3 h of incubation using an ULTRA READER (Tecan U.S. Inc., Research Triangle Park, N.C.). […] The Kd value was calculated using the equation: Kd value=IC50−L0/2.
The polarization values were measured after 3 h of incubation. […] Curve fitting was performed using [sequence] PRISM software (GraphPad Software, Inc., San Diego, Calif.). […] Compounds shown in Tables 19A-D as the free base were tested either as the free base or as the CF3CO2H (TFA) or HCl salt.

Row | % F ([1]; male rats, oral dose 25 mg/kg) | Cmax ([1]; male rats, oral dose 25 mg/kg) | T1/2 ([1]; male rats, oral dose 25 mg/kg) | % of compound remaining when incubated in rat liver microsomes ([2]; Table 16, 0 min) | % of compound remaining when incubated in rat liver microsomes ([2]; Table 16, 4 min) | % of compound remaining when incubated in rat liver microsomes ([2]; Table 16, 6 min) | % of compound remaining when incubated in rat liver microsomes ([2]; Table 16, 10 min) | % of compound remaining when incubated in rat liver microsomes ([2]; Table 16, 15 min) | % of compound remaining when incubated in rat liver microsomes ([2]; Table 16, 30 min) | Compound | oral bioavailability / oral pharmacokinetics in rats (in words) [1] | microsomal stability (in words) [2] | further results
1 | 31% | 274 ± 82 ng/mL | 3.8 ± 0.5 h | 100% | 88.4% | 77.2% | 65.6% | 62.3% | 60.4% | CN1CCN(CCNC(=O)C2NC(CC(C)(C)C)C3(C(=O)Nc4cc(Cl)ccc43)C2c2cccc(Cl)c2F)CC1 (stereo not shown) [MI-126] | much inferior oral pharmacokinetic parameters | improved rat microsomal stability over MI-219 | –
2 | 14% | 120 ± 112 ng/mL | 7.1 ± 1.8 h | 100% | 96.3% | 95.6% | 87.8% | 86.5% | 82.7% | CN1CCC(CCNC(=O)C2NC(CC(C)(C)C)C3(C(=O)Nc4cc(Cl)ccc43)C2c2cccc(Cl)c2F)CC1 (stereo not shown) [MI-122] | much inferior oral pharmacokinetic parameters | improved rat microsomal stability over MI-219 | –
3 | – | – | – | – | – | – | – | – | – | CN1CCN(CCCNC(=O)[C@@H]2N[C@H](CC(C)(C)C)[C@]3(C(=O)Nc4cc(Cl)ccc43)[C@H]2c2cccc(Cl)c2F)CC1 [MI-519-46] | – | – | IC50 ([3]; HCT-116, read-out: HCT-116 (p53-/-) IC50, Table 19A, HCT-116 p53-/-): 4300 ± 400 nM; IC50 ([3]; HCT-116, read-out: HCT-116 (p53 wild-type) IC50, Table 19A, HCT-116 p53 wild-type): 400 ± 100 nM; IC50 ([4]; LNCaP, Table 19A, LNCAP cells, p53 wild-type, cell growth, read-out: LNCAP (p53 wild-type) IC50): 500 ± 300 nM; IC50 ([4]; PC-3, Table 19A, PC-3 cells, deleted p53, cell growth, read-out: PC-3 (deleted p53) IC50): 3700 ± 400 nM; IC50 ([4]; SJSA-1, Table 19A, SJSA-1 cells, p53 wild-type, cell growth, read-out: SJSA-1 (p53 wild-type) IC50): 500 ± 300 nM; % of compound remaining when incubated in rat liver microsomes ([2]; Table 17, 0 min): 100%; % of compound remaining when incubated in rat liver microsomes ([2]; Table 17, 4 min): 83.8%; % of compound remaining when incubated in rat liver microsomes ([2]; Table 17, 6 min): 70.9%; % of compound remaining when incubated in rat liver microsomes ([2]; Table 17, 10 min): 53.9%; % of compound remaining when incubated in rat liver microsomes ([2]; Table 17, 15 min): 53.4%; % of compound remaining when incubated in rat liver microsomes ([2]; Table 17, 30 min): 38.3%; IC50 [5]: < 1000 nM
4 | 44% | 1913 ± 312 ng/mL | 1.51 ± 0.12 h | 100% | 63.1% | 56.6% | 44.4% | 30.9% | 30.2% | CC(C)(C)C[C@H]1N[C@@H](C(=O)NCCC2CCC(O)C2)[C@H](c2cccc(Cl)c2)[C@@]12C(=O)Nc1cc(Cl)c(F)cc12 (stereo partly shown) [MI-225] | good oral bioavailability | inferior microsomal stability to MI-219 | AUC(0-t) ([1]; male rats, oral dose 25 mg/kg): 7207 ± 1492
